Source: US12264142B2, “Heterocyclic compounds” (FLORATEK PHARMA SA, priority 2019, dated 2025)
Like-named read-outs stand apart in the source and are kept apart here.

What was measured:
[1] = test system: C. elegans; assay: Life span assay on Automated Lifespan Machine (SND302, SND303); type: in vivo; settings: for Mean lifespan: area under the survival curve; for Age in days at 25% mortality / Age in days at 50% mortality / Age in days at 75% mortality / Age in days at 90% mortality / Age in days at 100% mortality: SND302, SND303 25 μM, Uro A, Resveratrol 50 μM; for Effect on lifespan: in words, compared to control
Protocol: An additional life span assay using an adapted standard protocol employed and published by the C. elegans Intervention Testing Program, or CITP was employed to assess the activity of SND302 and SND303. A positive and a negative control were included in the assay. In a preliminary experiment the optimal conditions for the life span analysis was determined and the stress level induced by the compounds as well as toxicity were measured.
For the life span assay over 300 worms per conditions were used and the study was conducted by InVivoBiosystems (USA) using an Automated Lifespan Machine (ALM) with proprietary modifications to improve temperature stability and image acquisition.
To prevent chemical modification or metabolism of the test article by the food bacteria, worms were fed on a lawn of UV-killed bacteria (UV-i bacteria). An overnight culture of E. coli strain WP-2 was pelleted, washed, filtered, and irradiated. A suspension of UV-i bacteria was spotted on NGM agar containing Streptomycin to inhibit growth of contaminating bacteria. The quantity and distribution of food bacteria was calibrated to ensure adequate access to food for the duration of assay while maintaining visibility of the worms.
Test article was delivered to worms by a method compatible with and previously validated on the Automated Lifespan Machine and used by the CIT [Lucanic, et. al. Impact of genetic background and experimental reproducibility on identifying chemical compounds with robust longevity effects. Nature Communications 8 (2017)]. A 200× stock solution was freshly prepared in DMSO immediately before application. 40 μl of DMSO stock (0.5% plate volume) was applied to the plate to coat the food bacteria and then chased immediately with 160 μl water to uniformly distribute a fine precipitate across the surface of the plate. This functioned to provide reservoirs of compound in food, agar, and agar surface.
The ALM used by InVivoBiosystems is based on the Caenorhabditis elegans lifespan machine published by Stroustrup, N. et al. The Caenorhabditis elegans Lifespan Machine. N at Methods 10, 665-670 (2013), with proprietary modifications to improve temperature stability and image acquisition. The scanner unit consists of a modified EPSON V850 and images are processed and analyzed using the ALM software 7. The machine time-of-death calls are trained and validated using the “storyboarding” feature of the ALM software.
The lifespan assay was designed and performed according to published and validated methods, Amrit, F. R. G., Ratnappan, R., Keith, S. A. & Ghazi, A. The C. elegans lifespan assay toolkit. Methods 68, 465-475 (2014); Lucanic, et. al. Manual Lifespan Assay Standard Operating Procedure. Caenorhabditis Intervention Testing Program https://figshare.com/articles/7_CITP_SOP_Manual_Lifespan_Assay/9738197/1. using a modified version of the Automated Lifespan Machine. Worms were age synchronized by bleaching and eggs were plated directly onto NGM agar seeded with UV-I bacteria (Day 1, hatch). On Day 3, when the worms had reached the late L4 stage, they were transferred to dishes containing 100 μM 5-Fluorodeoxyuridine (FUdR) to suppress progeny. On day 5, the worms were washed off the dishes and 30-50 worms were plated on each scanner dish. Plates were immobilized inverted on the bed of an Automated Lifespan Machine which scanned two images per hour of the plates continuously for the next 40 days.
Time of death calls exported from the ALM software were analyzed and plotted using the Lifelines software package developed by Davidson-Pilon, (2019). lifelines: survival analysis in Python. Journal of Open Source Software, 4(40), 1317.

[2] = test system: C. elegans gene expression; assay: Whole transcriptome analysis (RNA-Seq) of treated worms; type: in vivo
Protocol: To determine the mode of action for SND302 and SND303 the gene transcription in young and aged adults was analyzed by RNA-Seq (whole transcription analysis). For each condition, >300 worms were treated in parallel with the lifespan assay and maintained under identical conditions.
Differential gene expression was performed with EdgeR using […] likelihood ratio tests based on fitting linear models. The likelihood ratios were used to determine the p-values which were subsequently corrected for using the BH false discovery rate (fdr) method. Eventually, differential expressed genes were defined as genes with fdr-corrected p-value of 0.05 or lower, as well as a change in expression of at least 2-fold in a given between-group comparison. Compounds SND302 and SND303 were compared against Urolithin and Vehicle control. […] In general the transcriptomic data corroborates a differential effect for SND303 when compared to SND302 (FIGS. 1-4).
Worms for RNA-Seq were split from the same synchronized pool of worms for the lifespan with each of the three replicates being maintained and treated in parallel. More than 150 worms per replicate were harvested, cleaned by filtration, and frozen at −80° in Trizol. To extract RNA, samples were thawed, vigorously vortexed, and processed using the Direct-zol RNA Miniprep Kit (Zymo Research). All samples exceeded our threshold for RNA quantity and quality. RNA samples were submitted to Novogene Co. Ltd and subjected to more stringent QC, being tested on a Qubit for concentration and run on an agarose gel and on the Agilent […] assess RNA quality and integrity. […] The total RNA was then enriched for poly-mRNA using oligo(dT) paramagnetic beads. DNA libraries were then constructed from this input mRNA using the NEBNext Ultra™ II RNA Library Prep Kit.
These libraries were then further tested by the Qubit for concentration and the Agilent 2100 for library size distribution and quality. In order to properly pool the libraries and load them onto sequencing lanes to ensure the correct number of reads per sample, an even more precise quantification of the library was done via qPCR, and the samples were loaded onto the NovaSeq 6000 platform for a paired-end sequencing run of 150 bp for each end (PE150). The loading concentrations were designed to obtain at least 6.0 Gb (which is the number of billion bases of raw data, determined by the number of reads multiplied by the length of each read). A mean of 7.4 Gb (median 7.3 Gb) raw sequencing data was obtained across all samples, with a minimum of 6.3 Gb and a maximum of 8.5 Gb raw data. Sequencing run data quality control was performed both by Novogene and by an in-house analysis. The raw data set was analyzed for parameters such as the distribution of base quality along the length of the sequencing read, the distribution of error rate along the length of the sequencing read. Reads containing adapter sequences, with N>10% (where N means “base cannot be determined”) and with a low quality (Qscore<=5) for 50% or more of its total bases were removed.

[3] = test system: C. elegans; settings: Ryu et al 2016; cited from earlier work

CC(C)NC(=O)Oc1ccc2c(c1)oc(=O)c1cc(OC(=O)NC(C)C)ccc12 [SND303]
Median lifespan ([1]; 25 μM): 29.0 days
Mean lifespan ([1]; 25 μM): 27.6 days
Age in days at 25% mortality [1]: 25 days
Age in days at 50% mortality [1]: 29.0 days
Age in days at 75% mortality [1]: 31.8 days
Age in days at 90% mortality [1]: 33.9 days
Age in days at 100% mortality [1]: 39.9 days
Effect on lifespan [1]: clear and statistically significant lifespan extension
Significant differentially-expressed genes ([2]; Day 3, compared to the controls (Vehicle and Urolithin A), 25 μM): 2-3 genes
Expression of gene C50F7.5 ([2]; Day 10): significantly upregulated
Most significant differentially-expressed genes ([2]; Day 10, compared to vehicle): 7 genes
Significant differentially-expressed genes ([2]; Day 10, compared with the UroA control): 3 genes

O=c1oc2cc(O)ccc2c2ccc(O)cc12 [Urolithin A, reference compound]
Median lifespan ([1]; 50 μM): 27.8 days
Mean lifespan ([1]; 50 μM): 27.0 days
Age in days at 25% mortality [1]: 23.8 days
Age in days at 50% mortality [1]: 27.8 days
Age in days at 75% mortality [1]: 30.2 days
Age in days at 90% mortality [1]: 32.3 days
Age in days at 100% mortality [1]: 37.7 days
Effect on lifespan [1]: did not produce a significant change in lifespan
Differentially-expressed genes ([2]; Urolithin A compared with the vehicle control): no differentially-expressed genes
Effect on lifespan [3]: extended lifespan
